A word on the IC50: it is the concentration that gives 50% inhibition.

For 26 compounds, IC50 results are on record in US10562898B2, “Substituted benzenesulfonamides as inhibitors of alpha-4 beta-7 integrin activity” (EA PHARMA CO., LTD., priority 2016, dated 2020).

Structures are written as SMILES.

For this assay, the target named is T1, α4β7 integrin (Homo sapiens, UniProt P13612+P26010).
T1 construct: a cell line RPMI-8866, which is known to express α4β7 integrin; endogenous in cells; host or cells: RPMI-8866 (human B cell line)
T1 sequence (P13612 34-1032): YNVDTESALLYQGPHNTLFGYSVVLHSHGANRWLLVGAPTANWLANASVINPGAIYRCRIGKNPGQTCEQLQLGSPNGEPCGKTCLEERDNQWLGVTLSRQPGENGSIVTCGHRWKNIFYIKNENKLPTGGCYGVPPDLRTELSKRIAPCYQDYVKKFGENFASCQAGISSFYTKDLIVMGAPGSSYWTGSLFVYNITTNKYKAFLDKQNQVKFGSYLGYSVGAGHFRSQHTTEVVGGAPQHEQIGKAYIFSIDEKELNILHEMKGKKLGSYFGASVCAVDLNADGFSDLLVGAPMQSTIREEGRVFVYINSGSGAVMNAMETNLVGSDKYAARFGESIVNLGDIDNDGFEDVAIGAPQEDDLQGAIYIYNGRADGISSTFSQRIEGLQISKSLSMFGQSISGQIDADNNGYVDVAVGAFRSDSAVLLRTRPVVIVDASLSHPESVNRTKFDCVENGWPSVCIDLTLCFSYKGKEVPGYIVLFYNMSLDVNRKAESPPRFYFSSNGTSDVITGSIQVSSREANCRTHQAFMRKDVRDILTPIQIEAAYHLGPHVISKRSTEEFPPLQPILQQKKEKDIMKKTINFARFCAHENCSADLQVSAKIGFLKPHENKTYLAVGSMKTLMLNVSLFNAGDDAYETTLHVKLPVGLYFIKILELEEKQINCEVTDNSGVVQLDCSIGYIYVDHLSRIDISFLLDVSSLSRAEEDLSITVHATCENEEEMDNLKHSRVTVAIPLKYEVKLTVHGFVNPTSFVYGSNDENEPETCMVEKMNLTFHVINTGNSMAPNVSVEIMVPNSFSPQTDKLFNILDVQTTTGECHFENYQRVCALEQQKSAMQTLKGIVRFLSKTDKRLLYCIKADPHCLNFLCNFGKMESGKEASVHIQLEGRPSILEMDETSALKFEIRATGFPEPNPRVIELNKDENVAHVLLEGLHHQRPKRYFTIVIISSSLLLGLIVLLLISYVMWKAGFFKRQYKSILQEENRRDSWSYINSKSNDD
T1 sequence (P26010 20-798): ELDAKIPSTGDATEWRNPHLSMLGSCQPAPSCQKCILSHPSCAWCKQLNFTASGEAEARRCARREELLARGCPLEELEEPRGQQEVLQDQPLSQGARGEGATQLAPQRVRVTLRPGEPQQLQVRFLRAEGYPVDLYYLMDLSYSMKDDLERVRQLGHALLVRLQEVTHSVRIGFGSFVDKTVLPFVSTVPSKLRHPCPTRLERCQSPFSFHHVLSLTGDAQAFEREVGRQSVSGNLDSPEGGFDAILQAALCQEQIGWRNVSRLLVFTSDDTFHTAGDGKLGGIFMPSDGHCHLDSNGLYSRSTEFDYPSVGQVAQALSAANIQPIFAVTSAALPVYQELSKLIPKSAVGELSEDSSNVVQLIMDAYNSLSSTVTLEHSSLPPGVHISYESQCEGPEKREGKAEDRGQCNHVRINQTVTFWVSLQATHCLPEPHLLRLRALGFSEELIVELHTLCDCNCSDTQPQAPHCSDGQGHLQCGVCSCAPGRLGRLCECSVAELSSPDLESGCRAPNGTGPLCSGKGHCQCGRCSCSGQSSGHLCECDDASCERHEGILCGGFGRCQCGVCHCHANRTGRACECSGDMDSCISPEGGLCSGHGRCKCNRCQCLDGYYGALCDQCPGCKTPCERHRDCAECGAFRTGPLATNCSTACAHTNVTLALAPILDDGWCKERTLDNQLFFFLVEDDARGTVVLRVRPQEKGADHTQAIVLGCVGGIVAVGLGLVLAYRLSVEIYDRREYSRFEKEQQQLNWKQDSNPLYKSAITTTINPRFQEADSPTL
Briefly: MAdCAM-1/α4β7 integrin binding inhibitory activity evaluation test (RPMI-8866 cells binding to MAdCAM-1/Fc). Type of assay: cell-based. The note with it: recombinant mouse MAdCAM-1/Fc, no serum. How it is done:
(2) MAdCAM-1/α4β7 Integrin Binding Inhibitory Activity Evaluation Test
Each test substance was measured in terms of an ability to inhibit the MAdCAM-1 binding of a human B cell line, namely, a cell line RPMI-8866, which is known to express α4β7 integrin.
A solution of recombinant mouse MAdCAM-1/Fc (R&D Systems, Inc.) (0.75 μg/mL) diluted with a buffer A (carbonate buffer, pH 9.6) was added in an amount of 50 μL/well to a 96-well microtiter plate, followed by incubation at 4° C. overnight. After the plate was washed with PBS once, 150 μL/well of Block Ace (Snow Brand Milk Products Co., Ltd.) was added, followed by incubation at room temperature for 2 hours. After removal, the plate was washed with PBS once.
Then, 100 μL of the RPMI-8866 cells (2×10^6 cells/mL) and 100 μL of the test substance at each of various concentrations diluted with a binding buffer (DMEM containing 40 mM HEPES, 0.2% BSA, and 4 mM MnCl2) were added on the plate coated with the MAdCAM-1/Fc (5×10^5 cells/well), followed by incubation at 30° C. for 15 to 60 minutes. After the cells were bound to the wells, the plate was washed with PBS to remove unbound cells. A buffer C (PBS containing 1.5% Triton X-100) in an amount 50 μL/well was added to the plate to lyse the bound RPMI-8866 cells. After 30 μL of a substrate buffer (Promega, CytoTox 96 Non-Radioactive Cytotoxicity Assay) was added to 30 μL of the cell lysate, a reaction was allowed to proceed at room temperature in the dark for 30 minutes. After 30 μL of a stop solution (Promega, CytoTox 96 Non-Radioactive Cytotoxicity Assay) was added to each, and then an absorbance at 490 nm was measured using a plate reader. The absorbance obtained here represents a detection result of an activity of lactate dehydrogenase (LDH) eluted in the supernatant of each well, that is, the absorbance is proportional to the number of RPMI-8866 cells bound to the MAdCAM-1 and thus remaining on the plate. The test was performed in duplicate. Provided that the absorbance of the well containing no test substance was 100%, a cell binding rate with the test substance at each of the various concentrations was figured out, and a concentration IC50 which brought about 50% binding inhibition was calculated.
Turning to `Cc1c(C)n(C)c(=O)n(-c2ccc(C[C@H](NC(=O)c3cc(F)c(NS(=O)(=O)c4ccc(NC(=O)C(C)(C)C)nc4)cc3F)C(=O)O)cc2)c1=O` [Compound A25], the IC50 is 1.1 nM.
With `Cn1c2c(c(=O)n(-c3ccc(C[C@H](NC(=O)c4cc(F)c(NS(=O)(=O)c5ccc(NC(=O)C(C)(C)C)cc5)cc4F)C(=O)O)cn3)c1=O)COCC2` [Compound A44], the half-maximal inhibitory concentration (IC50) is 0.48 nM.
In the case of `Cn1c2c(c(=O)n(-c3ccc(C[C@H](NC(=O)c4cc(F)c(NS(=O)(=O)c5ccc(NC(=O)C(C)(C)C)cc5)cc4F)C(=O)O)cc3)c1=O)CCOC2` [Compound A27] it was 0.36 nM; in that of `Cc1cn(C)c(=O)n(-c2ccc(C[C@H](NC(=O)c3cc(F)c(NS(=O)(=O)c4ccc(NC(=O)C(C)(C)C(F)(F)F)cc4)cc3F)C(=O)O)cn2)c1=O` [Compound A58], 1.3 nM; in that of `Cn1cc(C(F)(F)F)c(=O)n(-c2ccc(C[C@H](NC(=O)c3cc(F)c(NS(=O)(=O)c4ccc(NC(=O)C(C)(C)C)cc4)cc3F)C(=O)O)cn2)c1=O` [Compound A67], 1.9 nM.
On to `Cn1c2c(c(=O)n(-c3ccc(C[C@H](NC(=O)c4cc(F)c(NS(=O)(=O)c5ccc(NC(=O)C(C)(C)C)cc5)cc4F)C(=O)O)cn3)c1=O)CCCC2` [Compound A52], for which the 50% inhibitory concentration (IC50) turned out to be 0.7 nM.
Consider `Cn1ccc(=O)n(-c2ccc(C[C@H](NC(=O)c3cc(F)c(NS(=O)(=O)c4ccc(NC(=O)C5(C#N)CC5)cc4)cc3F)C(=O)O)cn2)c1=O` [Compound A59], for which the IC50 was determined as 3.3 nM.
In the case of `Cn1ccc(=O)n(-c2ccc(C[C@H](NC(=O)c3cc(F)c(NS(=O)(=O)c4ccc(NC(=O)C(C)(C)C(F)(F)F)cc4)cc3F)C(=O)O)cn2)c1=O` [Compound A57] it was 2 nM.
Regarding `Cc1c(C)n(C)c(=O)n(-c2ccc(C[C@H](NC(=O)c3cc(F)c(NS(=O)(=O)c4ccc(NC(=O)C(C)(C)C)cn4)cc3F)C(=O)O)cn2)c1=O` [Compound A32], the IC50 worked out at 0.62 nM.
In the case of `Cn1c(=O)n(-c2ccc(C[C@H](NC(=O)c3cc(F)c(NS(=O)(=O)c4ccc(NC(=O)NC(C)(C)C)cc4)cc3F)C(=O)O)cc2)c(=O)c2ccncc21` [Compound A5] it was 2.3 nM; in that of `Cn1c(=O)n(-c2ccc(C[C@H](NC(=O)c3cc(F)c(NS(=O)(=O)c4ccc(NC(=O)C(C)(C)C)cc4)cc3F)C(=O)O)cc2)c(=O)c2ccncc21` [Compound A1, (2S)-2-[[4-[[4-(2,2-dimethylpropanoylamino)phenyl]sulfonylamino]-2,5-difluoro-benzoyl]amino]-3-[4-(1-methyl-2,4-dioxo-pyrido[3,4-d]pyrimidin-3-yl)phenyl]propanoic acid], 0.26 nM.
`Cn1c2c(c(=O)n(-c3ccc(C[C@H](NC(=O)c4cc(F)c(NS(=O)(=O)c5ccc(NC(=O)C(C)(C)C)cc5)cc4F)C(=O)O)nc3)c1=O)CCCC2` [Compound A47]: the 50% inhibitory concentration (IC50) came out at 0.74 nM.
With `Cc1cn(C)c(=O)n(-c2ccc(C[C@H](NC(=O)c3cc(F)c(NS(=O)(=O)c4ccc(NC(=O)C(C)(C)C)cc4)cc3F)C(=O)O)cn2)c1=O` [Compound A54], the IC50 was 1.6 nM.
In the case of `Cc1cn(C)c(=O)n(-c2ccc(C[C@H](NC(=O)c3cc(F)c(NS(=O)(=O)c4ccc(NC(=O)C(C)(C)C)s4)cc3F)C(=O)O)cn2)c1=O` [Compound A73] it was 2.2 nM.
Turning to `Cc1cn(C)c(=O)n(-c2ccc(C[C@H](NC(=O)c3cc(F)c(NS(=O)(=O)c4ccc(NC(=O)C(C)(C)C)cc4)cc3F)C(=O)O)nc2)c1=O` [Compound A69], the IC50 was found to be 1.8 nM.
With `Cn1c(=O)n(-c2ccc(C[C@H](NC(=O)c3cc(F)c(NS(=O)(=O)c4ccc(NC(=O)C(C)(C)C)cc4)cc3F)C(=O)O)cn2)c(=O)c2ccncc21` [Compound A26], the IC50 is 0.23 nM.
As for `Cn1c(=O)n(-c2ccc(C[C@H](NC(=O)c3cc(F)c(NS(=O)(=O)c4ccc(NC(=O)C5(C(F)(F)F)CC5)cc4)cc3F)C(=O)O)cc2)c(=O)c2ccncc21` [Compound A24], the concentration for half-maximal inhibition (IC50) was found to be 0.3 nM.
In the case of `Cc1c(C)n(C)c(=O)n(-c2ccc(C[C@H](NC(=O)c3cc(F)c(NS(=O)(=O)c4ccc(NC(=O)C(C)(C)C)s4)cc3F)C(=O)O)cc2)c1=O` [Compound A10], the IC50 worked out at 0.38 nM.
`Cn1c2c(c(=O)n(-c3ccc(C[C@H](NC(=O)c4cc(F)c(NS(=O)(=O)c5ccc(NC(=O)C(C)(C)C)cc5)cc4F)C(=O)O)cc3)c1=O)COCC2` [Compound A33]: the half-maximal inhibitory concentration (IC50) came out at 0.45 nM.
Regarding `Cn1c(=O)n(-c2ccc(C[C@H](NC(=O)c3cc(F)c(NS(=O)(=O)c4ccc(NC(=O)C(C)(C)C)c(F)c4)cc3F)C(=O)O)cc2)c(=O)c2ccncc21` [Compound A12], the IC50 was found to be 0.45 nM.
The value for `Cc1c(C)n(C)c(=O)n(-c2ccc(C[C@H](NC(=O)c3cc(F)c(NS(=O)(=O)c4ccc(NC(=O)C(C)(C)C)cn4)cc3F)C(=O)O)cc2)c1=O` [Compound A19] was 0.39 nM; that for `Cn1ccc(=O)n(-c2ccc(C[C@H](NC(=O)c3cc(F)c(NS(=O)(=O)c4ccc(NC(=O)C5(C(F)(F)F)CC5)cc4)cc3F)C(=O)O)cn2)c1=O` [Compound A55] was 2.2 nM; that for `Cn1ccc(=O)n(-c2ccc(C[C@H](NC(=O)c3cc(F)c(NS(=O)(=O)c4ccc(NC(=O)C(C)(C)C)cc4)cc3F)C(=O)O)nc2)c1=O` [Compound A70] was 3.4 nM.
As for `Cc1c(C)n(C)c(=O)n(-c2ccc(C[C@H](NC(=O)c3cc(F)c(NS(=O)(=O)c4ccc(NC(=O)C5CCOCC5)cc4)cc3F)C(=O)O)cc2)c1=O` [Compound A15], the IC50 was 0.93 nM.
The value for `Cc1c(C)n(C)c(=O)n(-c2ccc(C[C@H](NC(=O)c3cc(F)c(NS(=O)(=O)c4cccc(NC(=O)C(C)(C)C)c4)cc3F)C(=O)O)cc2)c1=O` [Compound A49] was 2.9 nM.
As to `Cn1ccc(=O)n(-c2ccc(C[C@H](NC(=O)c3cc(F)c(NS(=O)(=O)c4ccc(NC(=O)C(C)(C)C)cc4)cc3F)C(=O)O)cn2)c1=O` [Compound A53], the IC50 worked out at 2 nM.
